Assay results reported in US12545639B2, “3-substituted phenylamidine compounds, preparation and use thereof” (PI INDUSTRIES LTD., priority 2019, dated 2026).

Assays:
Type in all cases: cell-based
Pyricularia oryzae = test: microbe, parasite or virus in culture; settings: 168 h, read-out: control compared to the untreated check (radial growth)
Rhizoctonia solani = Rhizoctonia solani (rice sheath blight/potato black scurf) in vitro test, radial growth on potato dextrose agar; settings: 168 h, 300 ppm in potato dextrose agar, 25° C., 60% relative humidity, seven days, read-out: control compared to the untreated check (radial growth)
Alternaria solani = Alternaria solani (early blight of tomato/potato) in vitro test, radial growth on potato dextrose agar; settings: 168 h, 300 ppm in potato dextrose agar, 25° C., 60% relative humidity, seven days, read-out: control compared to the untreated check (radial growth)

SMILES | inhibition of growth at 300 ppm (Pyricularia oryzae) | inhibition of growth at 300 ppm (Rhizoctonia solani) | inhibition of growth at 300 ppm (Alternaria solani)
CCN(C)C=Nc1cc(C)cc(Nc2ncccc2C(F)(F)F)c1Cl [Compound 135, N′-(2-chloro-5-methyl-3-((3-(trifluoromethyl)pyridin-2-yl)amino)phenyl)-N-ethyl-N-methylformimidamide] | ≥ 70% | ≥ 70% | –
CCN(C)C=Nc1cc(C)cc(N(C)c2cc(F)cc(F)c2)c1Cl [Compound 74, N′-(2-chloro-3-((3,5-difluorophenyl)(methyl)amino)-5-methylphenyl)-N-ethyl-N-methylformimidamide] | – | – | ≥ 70%
CCN(C)C=Nc1cc(C)cc(Nc2cc(F)cc(F)c2)c1Cl [Compound 78, N′-(2-chloro-3-((3,5-difluorophenyl)amino)-5-methylphenyl)-N-ethyl-N-methylformimidamide] | ≥ 70% | – | ≥ 70%
CCN(C)C=Nc1cc(Cl)cc(Cc2cccc(C#N)c2)c1C [Compound 250, N′-(5-chloro-3-(3-cyanobenzyl)-2-methylphenyl)-N-ethyl-N-methylformimidamide] | ≥ 70% | – | –
CCN(C)C=Nc1cc(C)cc(N(C)c2cccc(C(F)(F)F)n2)c1Cl [Compound 290, N′-(2-chloro-5-methyl-3-(methyl(6-(trifluoromethyl)pyridin-2-yl)amino)phenyl)-N-ethyl-N-methylformimidamide] | ≥ 70% | – | ≥ 70%
CCN(C)C=Nc1cc(C)cc(Nc2ccccc2OC(F)F)c1Cl [Compound 177, N′-(2-chloro-3-((2-(difluoromethoxy)phenyl)amino)-5-methylphenyl)-N-ethyl-N-methylformimidamide] | ≥ 70% | ≥ 70% | ≥ 70%
CCN(C)C=Nc1cc(OC)cc(Nc2ccc(OC)c(F)c2)c1C [Compound 269, N-ethyl-N′-(3-((3-fluoro-4-methoxyphenyl)amino)-5-methoxy-2-methylphenyl)-N-methylformimidamide] | – | – | ≥ 70%
CCN(C)C=Nc1cc(C)cc(Nc2ccc3c(c2)OCCO3)c1Cl [Compound 169, N′-(2-chloro-3-((2,3-dihydrobenzo[b][1,4]dioxin-6-yl)amino)-5-methylphenyl)-N-ethyl-N-methylformimidamide] | ≥ 70% | ≥ 70% | ≥ 70%
CCN(C)C=Nc1cc(Cl)cc(N(C)c2ccc(OC)cc2)c1C [Compound 167, N′-(5-chloro-3-((4-methoxyphenyl)(methyl)amino)-2-methylphenyl)-N-ethyl-N-methylformimidamide] | ≥ 70% | ≥ 70% | ≥ 70%
CCN(C)C=Nc1cc(Cl)cc(Cc2ccc(SC)cc2)c1C [Compound 252, N′-(5-chloro-2-methyl-3-(4-(methylthio)benzyl)phenyl)-N-ethyl-N-methylformimidamide] | ≥ 70% | – | –
CCN(C)C=Nc1cc(F)cc(Cc2ccc(SC)cc2)c1C [Compound 241, N-ethyl-N′-(5-fluoro-2-methyl-3-(4-(methylthio)benzyl)phenyl)-N-methylformimidamide] | ≥ 70% | ≥ 70% | ≥ 70%
CCN(C)C=Nc1cc(Cl)cc(Cc2ccc(C(F)(F)F)cc2)c1C [Compound 249, N′-(5-chloro-2-methyl-3-(4-(trifluoromethyl)benzyl)phenyl)-N-ethyl-N-methylformimidamide] | ≥ 70% | – | –
CCN(C)C=Nc1cc(Cl)cc(Cc2cccc(OC(F)(F)F)c2)c1C [Compound 251, N′-(5-chloro-2-methyl-3-(3-(trifluoromethoxy)benzyl)phenyl)-N-ethyl-N-methylformimidamide] | ≥ 70% | – | –
CCN(C)C=Nc1cc(C#N)cc(Cc2cccc(Br)c2)c1C [Compound 313, N′-(3-(3-bromobenzyl)-5-cyano-2-methylphenyl)-N-ethyl-N-methylformimidamide] | ≥ 70% | – | –
CCN(C)C=Nc1cc(Cl)cc(N(C)c2ccc(OC)c(F)c2)c1C [Compound 267, N′-(5-chloro-3-((3-fluoro-4-methoxyphenyl)(methyl)amino)-2-methylphenyl)-N-ethyl-N-methylformimidamide] | ≥ 70% | – | –
CCN(C)C=Nc1cc(C)cc(N(C)c2ncccc2C)c1Cl [Compound 108, N′-(2-chloro-5-methyl-3-(methyl(3-methylpyridin-2-yl)amino)phenyl)-N-ethyl-N-methylformimidamide] | ≥ 70% | – | ≥ 70%
CCN(C)C=Nc1cc(C)cc(Nc2ccc3ncsc3c2)c1Cl [Compound 228, N′-(3-(benzo[d]thiazol-6-ylamino)-2-chloro-5-methylphenyl)-N-ethyl-N-methylformimidamide] | ≥ 70% | – | ≥ 70%
CCN(C)C=Nc1cc(C)cc(N(C)c2ccc(F)cc2F)c1Cl [Compound 82, N′-(2-chloro-3-((2,4-difluorophenyl)(methyl)amino)-5-methylphenyl)-N-ethyl-N-methylformimidamide] | ≥ 70% | ≥ 70% | ≥ 70%

SMILES | inhibition of growth at 300 ppm (Pyricularia oryzae) | inhibition of growth at 300 ppm (Rhizoctonia solani) | inhibition of growth at 300 ppm (Alternaria solani)
CCN(C)C=Nc1cc(C)cc(N(C)c2cccc(OC)c2)c1Cl [Compound 49, N′-(2-chloro-3-((3-methoxyphenyl)(methyl)amino)-5-methylphenyl)-N-ethyl-N-methylformimidamide] | ≥ 70% | – | ≥ 70%
CCN(C)C=Nc1cc(C)cc(Cc2ccccc2C#N)c1Cl [Compound 47, N′-(2-chloro-3-(2-cyanobenzyl)-5-methylphenyl)-N-ethyl-N-methylformimidamide] | ≥ 70% | – | ≥ 70%
CCN(C)C=Nc1cc(C)cc(Nc2cc(Cl)cc(C(F)(F)F)c2)c1Cl [Compound 137, N′-(2-chloro-3-((3-chloro-5-(trifluoromethyl)phenyl)amino)-5-methylphenyl)-N-ethyl-N-methylformimidamide] | ≥ 70% | – | ≥ 70%
CCN(C)C=Nc1cc(C)cc(N(C)c2ccccn2)c1Cl [Compound 107, N′-(2-chloro-5-methyl-3-(methyl(pyridin-2-yl)amino)phenyl)-N-ethyl-N-methylformimidamide] | ≥ 70% | – | –
CCN(C)C=Nc1cc(F)cc(C(=O)COc2ccc(OC)cc2Cl)c1C [Compound 304, N′-(3-(2-(2-chloro-4-methoxyphenoxy)acetyl)-5-fluoro-2-methylphenyl)-N-ethyl-N-methylformimidamide] | ≥ 70% | – | ≥ 70%
CCN(C)C=Nc1cc(C)cc(Nc2cc(F)cc(Cl)c2)c1Cl [Compound 97, N′-(2-chloro-3-((3-chloro-5-fluorophenyl)amino)-5-methylphenyl)-N-ethyl-N-methylformimidamide] | ≥ 70% | – | –
CCN(C)C=Nc1cc(C)cc(N(C)c2ccc3ncsc3c2)c1Cl [Compound 240, N′-(3-(benzo[d]thiazol-6-yl(methyl)amino)-2-chloro-5-methylphenyl)-N-ethyl-N-methylformimidamide] | ≥ 70% | – | ≥ 70%
CCN(C)C=Nc1cc(Cl)cc(N(C)c2cccc(C(F)(F)F)n2)c1C [Compound 289, N′-(5-chloro-2-methyl-3-(methyl(6-(trifluoromethyl)pyridin-2-yl)amino)phenyl)-N-ethyl-N-methylformimidamide] | ≥ 70% | – | ≥ 70%
CCN(C)C=Nc1cc(C#N)cc(Cc2cccc(C#N)c2)c1C [Compound 309, N′-(5-cyano-3-(3-cyanobenzyl)-2-methylphenyl)-N-ethyl-N-methylformimidamide] | ≥ 70% | – | –
CCN(C)C=Nc1cc(F)cc(N(C)c2ccc3ncsc3c2)c1C [Compound 238, N′-(3-(benzo[d]thiazol-6-yl(methyl)amino)-5-fluoro-2-methylphenyl)-N-ethyl-N-methylformimidamide] | ≥ 70% | – | ≥ 70%
CCN(C)C=Nc1cc(OC)cc(Cc2cccc(C#N)c2)c1C [Compound 306, N′-(3-(3-cyanobenzyl)-5-methoxy-2-methylphenyl)-N-ethyl-N-methylformimidamide] | ≥ 70% | ≥ 70% | ≥ 70%
CCc1cccc(Nc2cc(F)cc(N=CN(C)CC)c2C)n1 [Compound 227, N-ethyl-N′-(3-((6-ethylpyridin-2-yl)amino)-5-fluoro-2-methylphenyl)-N-methylformimidamide] | – | – | ≥ 70%
CCN(C)C=Nc1cc(OC)cc(Nc2ccccc2OC)c1C [Compound 268, N-ethyl-N′-(5-methoxy-3-((2-methoxyphenyl)amino)-2-methylphenyl)-N-methylformimidamide] | – | – | ≥ 70%
CCN(C)C=Nc1cc(C)cc(N(C)c2ccc(OC)cc2)c1Cl [Compound 64, N′-(2-chloro-3-((4-methoxyphenyl)(methyl)amino)-5-methylphenyl)-N-ethyl-N-methylformimidamide] | ≥ 70% | ≥ 70% | ≥ 70%
CCN(C)C=Nc1cc(Cl)cc(Nc2cccc(C)c2)c1C [Compound 154, N′-(5-chloro-2-methyl-3-(m-tolylamino)phenyl)-N-ethyl-N-methylformimidamide] | ≥ 70% | ≥ 70% | ≥ 70%
CCN(C)C=Nc1cc(F)cc(Cc2cccnc2)c1C [Compound 260, N-ethyl-N′-(5-fluoro-2-methyl-3-(pyridin-3-ylmethyl)phenyl)-N-methylformimidamide] | – | ≥ 70% | ≥ 70%
CCN(C)C=Nc1cc(Cl)cc(Cc2cccnc2)c1C [Compound 248, N′-(5-chloro-2-methyl-3-(pyridin-3-ylmethyl)phenyl)-N-ethyl-N-methylformimidamide] | ≥ 70% | – | –
